Patent publication US3955959A, “Herbicide for use in transplanted rice” (priority 1974, dated 1976)
Values after ≈ are worked out from the molar mass of the structure shown.

Key:
Dapog transplanted rice = experiment: Example 3 field test, crop injury; conditions: obs. 42 DAT
Experimental: (§1) In the tests described in the tables below, the herbicides were formulated and used in granular form in conventional manner. […] The commercial herbicide used was a granular product having 5% active ingredient.
(§2) In the field tests of the herbicide of this invention with transplanted rice, the rice seedlings were grown in conventional manner, by seeding the rice in a typical seedbed of sandy loam to clay soil of the country wherein the test was conducted. For laboratory and greenhouse work the seedlings were obtained by seeding rice in a mixture of soil, e.g., Ray silt loam, and peat in wood flats. For purposes of testing the herbicides on younger rice seedlings (infant or Dapog) the rice was usually allowed to grow for 6-15 days before lifting for transplanting. Older (ordinary) rice plants were usually grown for a period of about 2-3 weeks, or as much as about 7 weeks before lifting. Since the period of growth is dependent upon climatic conditions, a better measure of when to transplant the rice seedling is the leaf stage of growth; for infant or Dapog rice the seedling is lifted at the 1.5-2 leaf stage of growth, and for ordinary seedlings at the 2.5-5 leaf stage. The seedlings were then transplanted to the test plots for evaluation of the herbicide for injury against weed species present with the transplanted rice. The herbicides were then applied to the growth medium of the weeds and transplant rice, either preemergent or postemergent with respect to the weeds and postemergent with respect to the transplanted rice. Application times are designated in the tables as "DAT", meaning "days after transplant". Application rates given in the tables refer to the amount of active ingredient used.
Eleven (11) day-old Dapog seedlings were transplanted and treated at 5 DAT and 14 DAT with Herbicides A and B. The plots were overseeded with Echinochloa crusgalli seeds at 2 kgs/ha prior to transplanting. Treatments were replicated four times.

[1] = system: Mv (Monochoria vaginalis); experiment: Example 1 field test, weed control in transplanted rice, Iri, Korea; format: in vivo; conditions: av. of 36 and 63 DAT
Description: (§3) In the field test 48 day-old seedlings (Watanabe variety) were transplanted to plots 2.5 × 6 m. seeded with the weed seeds indicated in Table 1. At 5 and 10 DAT periods, the herbicides were applied to the plants (now at the 1.2 and 2.0 leaf stage, respectively, of grass weed) at the indicated rate in kilograms per hectare (kg/ha). The weed control and rice injury results for 3 replications are reported in percentages as of the indicated times of observation. The percentages given in the "Perennials" column are based on the weight of the weeds at 63 DAT, i.e., 42 gms/3.6 m^2 for the weedy check.

[2] = system: Eo (Echinochloa oryzicola); experiment: as above; format: in vivo; conditions: av. of 36 and 63 DAT
Description: as §3

[3] = Example 10 fish toxicity, Japanese protocol; format: in vivo, carp; conditions: carp, in vivo, read-out: Medium Lethal Concentration
Experimental: In view of the importance of fish toxicological considerations, tests were conducted, using carp according to the Japanese protocol, to compare toxicity data for Herbicides A and B; results of those tests are shown in Table 10.

[4] = system: weeds in transplanted rice; experiment: Field tests / general herbicidal activity in transplanted rice; format: in vivo; conditions: field tests
[5] = system: weeds in ordinary transplanted rice; experiment: Example 4 field test, overall weed control; format: in vivo
Description: (§4) Treatments were replicated four times.

[6] = system: Obw (other broadleaf weeds); experiment: Example 5 field test, weed control, JAAPR, Japan; format: in vivo; conditions: 1.5 kg/ha, 7 DAT
[7] = system: transplanted rice (ordinary and infant seedlings); experiment: Example 5 field test, rice injury; conditions: 1.5 kg/ha, 7 DAT
Experimental: as §1, §2
The rice seedlings were grown to the 1.7 leaf stage for infant seedlings and to the 5.5 leaf stage for ordinary seedlings. Two days after puddling the soil in which the seedlings were to be transplanted, both infant and ordinary seedlings were transplanted into plots 8.5 m^2.
The weed symbol "Obw" represents "other broadleaf weeds" of unspecified identity. Results presented in Table 5 represent the average of 2 replications.

[8] = system: Sedges: Cd, Ci, Fl (Cyperus difformis, Cyperus iria, Fimbristylis littoralis); experiment: Example 3 field test on Dapog rice, weed control, Munoz, Philippines; format: in vivo; conditions: obs. 42 DAT
Description: as §4

[9] = system: Grass: Ec and Ecol (Echinochloa crusgalli, Echinochloa colonum); experiment: as above; format: in vivo; conditions: obs. 42 DAT
Description: as §4

transplanted rice = experiment: Example 1 field test, rice injury; format: in vivo, rice (Watanabe variety)
Description: as §3

[10] = system: Broadleaf: Mv, Sz (Monochoria vaginalis, Sphenoclea zeylanica); experiment: Example 4 field test on ordinary rice, weed control, Munoz, Philippines; format: in vivo, Monochoria vaginalis and Sphenoclea zeylanica; conditions: obs. 36 DAT
Description: as §4

CCCCOCN(C(=O)CCl)c1c(CC)cccc1CC [Herbicide B, n-(butoxymethyl)-2',6'-diethyl-2-chloroacetanilide, reference compound]
Crop Injury (%) (Dapog transplanted rice; 5 DAT, 1.0 kg/ha): 0% | Crop Injury (%) (Dapog transplanted rice; 5 DAT, 1.5 kg/ha): 0% | Crop Injury (%) (Dapog transplanted rice; 5 DAT, 3.0 kg/ha): 0% | Crop Injury (%) (Dapog transplanted rice; 14 DAT, 1.0 kg/ha): 0% | Crop Injury (%) (Dapog transplanted rice; 14 DAT, 1.5 kg/ha): 0% | Crop Injury (%) (Dapog transplanted rice; 14 DAT, 3.0 kg/ha): 0% | % Weed Control (Mv) ([1]; 5 DAT, 1.0 kg/ha): 43% | % Weed Control (Mv) ([1]; 5 DAT, 1.5 kg/ha): 55% | % Weed Control (Mv) ([1]; 5 DAT, 3.0 kg/ha): 70% | % Weed Control (Mv) ([1]; 10 DAT, 1.0 kg/ha): 58% | % Weed Control (Mv) ([1]; 10 DAT, 1.5 kg/ha): 75% | % Weed Control (Mv) ([1]; 10 DAT, 3.0 kg/ha): 69% | % Weed Control (Eo) ([2]; 5 DAT, 1.0 kg/ha): 64% | % Weed Control (Eo) ([2]; 5 DAT, 1.5 kg/ha): 89% | % Weed Control (Eo) ([2]; 5 DAT, 3.0 kg/ha): 92% | % Weed Control (Eo) ([2]; 10 DAT, 1.0 kg/ha): 68% | % Weed Control (Eo) ([2]; 10 DAT, 1.5 kg/ha): 83% | % Weed Control (Eo) ([2]; 10 DAT, 3.0 kg/ha): 77% | LC50 at 48 h ([3]; 48 hours): 1 µg/mL (≈ 3.21 µM) | LC50 at 96 h ([3]; 96 hours): 0.76 µg/mL (≈ 2.44 µM) | latest/optimum application stage of weeds [4]: 1 leaf stage | control of all weeds ([5]; 5 DAT): complete control of all weeds | weed control in words ([5]; 14 DAT, 1.0 and 1.5 kgs/ha): nil | weed control ([5]; 14 DAT, 3.0 kgs/ha): 50% | control of Obw in words [6]: complete control | % Weed Control (Obw) ([6]; infant seedlings): 100% | % Weed Control (Obw) ([6]; ordinary seedlings): 71% | Injury ([7]; infant seedlings): 10 | Injury ([7]; ordinary seedlings): 5 | % Weed control, Sedges (Cd, Ci, Fl) ([8]; 5 DAT, 1.0 kg/ha): 100% | % Weed control, Sedges (Cd, Ci, Fl) ([8]; 5 DAT, 1.5 kg/ha): 100% | % Weed control, Sedges (Cd, Ci, Fl) ([8]; 5 DAT, 3.0 kg/ha): 100% | % Weed control, Sedges (Cd, Ci, Fl) ([8]; 14 DAT, 1.0 kg/ha): 0% | % Weed control, Sedges (Cd, Ci, Fl) ([8]; 14 DAT, 1.5 kg/ha): 0% | % Weed control, Sedges (Cd, Ci, Fl) ([8]; 14 DAT, 3.0 kg/ha): 70% | % Weed control, Grass (Ec and Ecol) ([9]; 5 DAT, 1.0 kg/ha): 100% | % Weed control, Grass (Ec and Ecol) ([9]; 5 DAT, 1.5 kg/ha): 100% | % Weed control, Grass (Ec and Ecol) ([9]; 5 DAT, 3.0 kg/ha): 100% | % Weed control, Grass (Ec and Ecol) ([9]; 14 DAT, 1.0 kg/ha): 0% | % Weed control, Grass (Ec and Ecol) ([9]; 14 DAT, 1.5 kg/ha): 0% | % Weed control, Grass (Ec and Ecol) ([9]; 14 DAT, 3.0 kg/ha): 60% | % Rice Injury (transplanted rice; 5 DAT, 1.0 kg/ha, obs. 21 DAT): 0% | % Rice Injury (transplanted rice; 5 DAT, 1.0 kg/ha, obs. 42 DAT): 0% | % Rice Injury (transplanted rice; 5 DAT, 1.5 kg/ha, obs. 21 DAT): 0% | % Rice Injury (transplanted rice; 5 DAT, 1.5 kg/ha, obs. 42 DAT): 0% | % Rice Injury (transplanted rice; 5 DAT, 3.0 kg/ha, obs. 21 DAT): 5% | % Rice Injury (transplanted rice; 5 DAT, 3.0 kg/ha, obs. 42 DAT): 0% | % Rice Injury (transplanted rice; 10 DAT, 1.0 kg/ha, obs. 21 DAT): 0% | % Rice Injury (transplanted rice; 10 DAT, 1.0 kg/ha, obs. 42 DAT): 0% | % Rice Injury (transplanted rice; 10 DAT, 1.5 kg/ha, obs. 21 DAT): 0% | % Rice Injury (transplanted rice; 10 DAT, 1.5 kg/ha, obs. 42 DAT): 0% | % Rice Injury (transplanted rice; 10 DAT, 3.0 kg/ha, obs. 21 DAT): 0% | % Rice Injury (transplanted rice; 10 DAT, 3.0 kg/ha, obs. 42 DAT): 0% | % Weed control, Broadleaf (Mv,Sz) ([10]; 5 DAT, 1.0 kg/ha): 100% | % Weed control, Broadleaf (Mv,Sz) ([10]; 5 DAT, 1.5 kg/ha): 100% | % Weed control, Broadleaf (Mv,Sz) ([10]; 5 DAT, 3.0 kg/ha): 100% | % Weed control, Broadleaf (Mv,Sz) ([10]; 14 DAT, 1.0 kg/ha): 0% | % Weed control, Broadleaf (Mv,Sz) ([10]; 14 DAT, 1.5 kg/ha): 0% | % Weed control, Broadleaf (Mv,Sz) ([10]; 14 DAT, 3.0 kg/ha): 50%
